From patent EP0335662B1, “Peptides” (BRITISH TECHNOLOGY GROUP LIMITED, priority 1988, dated 1989)
Where “and” joins values, the source holds several entries; their conditions need not be identical. Equal entries are not always repeated. Where two headings read alike, the source gives them in different places. Non-standard residues stand in square brackets, D forms with d. Residues, ends and D or L forms follow the SMILES beside them.

Tests used:
[1] = tested on: hyperalgesia evoked by IL-1β; experiment: Modified Randall-Sellito rat paw pressure test: hyperalgesia evoked by IL-1β; format: in vivo, rats; settings: 100 »g ipl, 30 minutes before 0.05U IL-1β ipl or ip
Protocol: (§1) Hyperalgesia was evaluated by the application of a constant pressure of 20 mmHg to the hind paws of rats (Wistar strain, male, weight 135 - 170g) which was discontinued when animals presented a characteristic freezing reaction (reaction time). The intensity of hyperalgesia was quantified as the variation of the reaction time (Δ reaction time, sec) obtained by subtracting the value measured 1,2,3 or 4h after administration of the hyperalgesic agent from the pre-injection control reaction time (zero time). The experimenter was unaware of the group treatments.
(§2) There were 5 animals per treatment group. […]

[2] = tested on: human blood mononuclear cells (MNC); experiment: PGE₂ release by blood mononuclear cells, radioimmunoassay; format: cell-based; settings: in words
Protocol: The effect of K(D)PT and indomethacin on PGE₂ release by human blood mononuclear cells (MNC) was investigated. The MNC were isolated from buffy coat residues by density gradient centrifugation (Ficoll-hypaque, Sigma) and resuspended in RPMI 1640 culture medium (Gibco) + 2% inactivated foetal calf serum (Imperial Laboratories). […] Values are means of quadruplicates ± s.e.m.'s. PGE₂ concentrations were measured by radioimmunoassay (NEN Research Products).

[3] = tested on: gastric lesions; experiment: Gastric lesions after treatment; format: in vivo, mice; settings: 32 mg/kg
[4] = tested on: hyperalgesia evoked by PGE₂; experiment: Rat paw pressure test: hyperalgesia evoked by PGE₂; set-up: species or system rats; settings: in vivo
Protocol: as §1, §2

[5] = tested on: hyperalgesia evoked by DbcAMP; experiment: Rat paw pressure test: hyperalgesia evoked by DbcAMP; set-up: species or system rats; settings: in vivo
Protocol: as §1
The effect of the tripeptides KPV and K(D)PV on hyperalgesia evoked in rats by DbcAMP was studied. Treatments were given ip, 1h before DbcAMP was injected into the paw (ipl). There were 5 animals per treatment group. Delta reaction times were measured 3h after DbcAMP. […] The control was DbcAMP (100»g/paw). […]

[6] = tested on: hot plate (55°C) reaction time; experiment: Standard hot plate (55°C) test; settings: in vivo
Protocol: A standard hot plate (55°C) test was carried out. […]

[7] = tested on: hyperalgesia evoked by IL-1β; settings: cited from earlier work
[8] = tested on: mice; settings: administered to mice; Goerne et al 1982; cited from earlier work
[9] = tested on: hot-plate test; settings: injected into the brain; Herman et al 1985; cited from earlier work

COc1ccc2c(c1)c(CC(=O)O)c(C)n2C(=O)c1ccc(Cl)cc1 [Indomethacin, indomethacin]
effect of pretreatment on hyperalgesic response, contralateral paws (CL) [1]: no effect
effect of pretreatment on hyperalgesic response, treated paws (I) [1]: markedly attenuated
effect on production of PGE₂ by MNC [2]: abolished PGE₂ production

C[C@@H](O)[C@H](NC(=O)[C@H]1CCCN1C(=O)[C@@H](N)CCCCN)C(=O)O [K(D)PT, Lys-D-Pro-Thr] (H-Lys-[dP]-Thr-OH)
gastric lesions [3]: No lesions were observed

CN1CC[C@]23c4c5ccc(O)c4O[C@H]2[C@@H](O)C=C[C@H]3[C@H]1C5 [Morphine, morphine]
change of delta reaction time vs control (= 100%) [4]: -63.7%
delta reaction time [4]: 6.1 ± 0.8 s
antagonism of hyperalgesia evoked by DbcAMP [5]: effective antagonist
change of delta reaction time vs control (= 100%) [5]: -64.0%
delta reaction time [5]: 6.2 ± 0.4 s
reaction time difference, hot plate (55°C) [6]: 3.52 s and 5.55 s
antagonism of on-going hyperalgesia ([7]; rat, in vivo): able to antagonise on-going hyperalgesia

Cc1c(N(C)CS(=O)(=O)O)c(=O)n(-c2ccccc2)n1C [dipyrone]
antagonism of on-going hyperalgesia ([7]; general statement on known analgesics, no data): able to antagonise on-going hyperalgesia

Arg-Pro
hyperalgesia on administration [8]: evoke hyperalgesia

Lys-Pro
antinociceptive action in a hot-plate test [9]: elicited antinociceptive action
hyperalgesia on administration [8]: evoke hyperalgesia
